Results on 1 molecule are retold here after patent publication US9795570B2, “Modulation of macrophage phenotype by emodin” (University of South Carolina, priority 2016, dated 2017).

In experiment [1] the test system is peritoneal macrophages and 4T1 cells. Briefly: Tumor cell-macrophage adhesion. Type of experiment: cell-based, mouse. How it is done:
Tumor cell monolayers (80-90% confluent) and macrophages were treated with emodin (0-25 μM) overnight. The cells were then washed multiple times with PBS, and fresh SF DMEM was added. Macrophages were resuspended with scraping and 5×10^5 cells were seeded onto the tumor cell monolayers. After 1 h the non-adherent cells were washed away, and the adherent cells were resuspened with Trypsin and mild scraping. The total number of cells was counted, and cells were stained with anti-F4/80 FITC (Biolegend). The cells were analyzed on a Beckman Coulter FC500.

Experiment [2] relates to mouse peritoneal macrophages. As to the kind of experiment: NO production assay. Type of experiment: cell-based. To be noted: LPS/IFNγ 24 h, emodin 0-50 μM. How it is done: Macrophages were stimulated with LPS+IFNγ for 24 h with various concentrations of emodin (0-50 μM). The culture media was then collected and the NO content was detected using a Nitrite/Nitrate colormetric kit (Sigma-Aldrich) according to the manufacturer's instructions. The assay was read using a Spectramax M5 microplate reader (Molecular Devices, Sunnyvale, Calif.).

Experiment [3] deals with mouse peritoneal macrophages. As to the kind of experiment: Macrophage migration assay toward MCP1 (transwell). Type of experiment: cell-based. To be noted: LPS/IFNγ or IL4 stimulated, emodin 50 μM, MCP1 20 ng/ml. How it is done: Macrophages were stimulated with IL4 or LPS+IFNγ for 24 h with or without emodin. The media was then removed and the cells were washed with PBS. The cells were then resuspended in DMEM with scraping and 2×10^5 macrophages were seeded in triplicate into the top chamber of transwell inserts with 8 μm pores (Corning) and place in 24 well plates. Serum free DMEM with 20 ng/ml MCP1 was placed in the bottom of the wells. After 4 h, inserts were fixed in 4% paraformaldehyde for 20 min; the cells in upper inserts were swabbed using cotton buds, and the cells left on the membrane were stained with DAPI (1 μg/ml) for 1 min. The inserts were then cut out, mounted onto slides and imaged under a Nikon Eclipse NI-U fluorescence microscope (Nikon Inc. Melville, N.Y.) at 20× magnification (5 fields/insert). DAPI stained cells were quantified using Nikon NIS-Elements software.

The subject of another experiment is 4T1 tumors. Briefly: 4T1 breast tumor model in BALB/c mice. The class given is in vivo. The protocol: C57BL/6 and BALB/c mice (8-12 weeks, female) were purchased from Jackson Labs (Bar Harbor, Me.). They were housed at the University of South Carolina Animal Research Facility, and all procedures were approved by the Institutional Animal Care and Use Committee. EO771 or 4T1 cells (2×10^5) in 20 μL of PBS were injected into the 4th pair of mammary glands on C57BL/6 mice or BALB/C, respectively, on Day 0. Starting on Day 1, emodin (40 mg/kg) or vehicle (2% DMSO) was injected intraperitoneally in 1 ml PBS once daily. The tumor size was measured using a caliper every 2-4 days, and the tumor volume was calculated using a formula: V (mm^3)=L (major axis)×W^2 (minor axis)/2. Mice were sacrificed at various time points.
The tumor draining lymph nodes and tumors were collected, and cell populations were analyzed using flow cytometry. Briefly, cells were stained with anti-CD3 FITC, anti-CD4 APC or anti-CD8 APC, and anti-CD25 PE (Biolegend) in PBS containing 2% FBS for 30 min at 4° C. Samples were washed twice with staining buffer and analyzed by flow cytometry using a BD FACS flow cytometer and CXP software version 2.2 (BD Biosciences, San Jose, Calif.). Data were collected for 20,000 live events per sample.
At sacrifice, tumors were embedded in OCT. They were then cut into 8 μm thick frozen sections and placed on slides. For immunohistochemistry staining, the sections were fixed with 4% paraformaldehyde for 10 min, and then blocked with 0.01 M glycine containing 0.1% Triton x-100. Next, the sections were blocked with 5% BSA. They were then incubated in primary antibody overnight at 4° C.: anti-F4/80 (1:50, Biolegend), anti-pSTAT6 (1:50, Cell Signaling), or anti-C/EBPβ (1:50, Santa Cruz). The sections were washed with PBS and then incubated with secondary antibodies for 1 h at room temperature. The sections were then stained with DAPI (1 μg/mL) and coverslipped with DABCO. Slides were imaged using a Zeiss LSM 510 Confocal microscope (Zeiss, Peabody, Mass.). For quantitative analysis, the number of positive cells was manually counted in six random fields of view per section. CD31 staining was performed according to standard methodology. Slides were imaged on a Nikon ECLIPSE E600 microscope (Nikon, Melville, N.Y.) at 200× magnification (10 fields per section). The integrated optical density (IOD) of CD31 was quantified using Image-Pro Plus software.
Macrophages or T cells were isolated from 4T1 tumors from mice sacrificed at 6 weeks post implantation or from EO771 tumors 5 weeks post implantation, using EasySep™ Mouse PE Positive Selection Kit (Stem Cell Technologies, Vancouver, BC). For cell isolation, 1×10^7-1×10^8 cells were incubated with 20 μL PE conjugated anti-F4/80 (Biolegend) for macrophages or 20 μL PE conjugated anti-CD3 for T cells and 50 μL microbeads. The T cells and macrophages were lysed in Qiazol and used for RT-PCR analysis. For ChIP assays, 5-10×10^6 macrophages were fixed in 1% formaldehyde.
Macrophages were fixed in 1% formaldehyde. Excess formaldehyde was quenched with glycine, and the cells were collected in PBS by scraping. The cells were lysed (0.5% IGEPAL, 4 mM HEPES), and the nuclei were resuspended in nuclear lysis buffer (1% SDS, 10 mM EDTA, and 50 mM Tris, pH 8.1). The DNA was sheared by sonication using a Diagnode Bioruptor Pico (Diagenode, Denville, N.J.) for 25 cycles of 30 s on/30 s off. Then 8 μg chromatin was diluted 1:10 (0.01% SDS, 1.1% Triton X-100, 1.2 mM EDTA, 16.7 mM Tris-HCl, pH 8.1, 167 mM NaCl), and 2% of the input was removed from each sample and saved for analysis. Anti-H3K27m3 (Abcam) was added to each sample along with 20 μL of protein A+G magnetic beads (Millipore), and the samples were incubated overnight at 4° C. The beads were washed with low salt, high salt, LiCl, and TE wash buffers sequentially, and the DNA was eluted off the beads with Proteinase K at 62° C. for 2 h (elution buffer: 200 mM NaCl, 1% SDS and 50 mM Tris). The DNA was then analyzed by qPCR.

Where [4] appears, read: 40 mg/kg IP once daily from Day 1.

Regarding `Cc1cc(O)c2c(c1)C(=O)c1cc(O)cc(O)c1C2=O` [emodin], the “adhesion of macrophages to a monolayer of tumor cells” value in experiment [1] (emodin treatment of both macrophages and tumor cells) is “decreased the adhesion even further”. Also, the “adhesion of macrophages to a monolayer of tumor cells” value in experiment [1] (emodin treatment of either macrophages or tumor cells) was “significantly inhibited”. Moreover, the NO production result in experiment [2] is “dose dependently inhibited”. In addition, in experiment [3], the “macrophage migration toward MCP1” value is listed as “significantly reduced”. Moreover, in the experiment on 4T1 tumors (setting [4]), the primary tumor growth entry was “significant inhibition” and the “tumor weight at the endpoint” value was “significant inhibition”. Also, in the experiment on 4T1 tumors (26 days post implantation), the “fraction of macrophages positive for pSTAT6 and C/EBPβ” value is listed as “significantly reduced”. In the experiment with 4T1 tumors (26 days post implantation, tumor size not different), the “number of macrophages in tumors” value is “significantly reduced”. In the experiment with 4T1 tumors (ChIP-qPCR), the “H3K27m3 levels on the IRF4 promoter in TAMs” value is on record as “significantly increased”. Further, in the experiment with 4T1 tumors (experimental endpoint, RT-qPCR), the “expression of IRF4 in TAMs” value was “significantly decreased” and the “expression of JMJD3 in TAMs” value is “significantly decreased”. Moreover, in the experiment with 4T1 tumors (flow cytometry, CD25), the “activated CD4+ and CD8+ T cells in draining lymph nodes” value is reported as “increased”. Besides, the “IFNγ expression in CD3+ T cells vs control mice” value with 4T1 tumors (qPCR) is given as “two-fold increase”.
